Source: patent US12448388B2, “PRMT5 inhibitors and uses thereof” (Gilead Sciences, Inc., priority 2023, dated 2025)

Tested on: HCT116 MTAP-deleted cell lines
Experiment: Cell viability assay (CellTiter-Glo, 7 days), HCT116 MTAP-deleted
Type: cell-based
Conditions: Homo sapiens, HCT-116; cell viability, HCT116 MTAP-deleted; class symbols; read-out: CC50
Outline: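 Luminescent ATP readout (CellTiter-Glo) after 7 days of continuous compound exposure gives the CC50 value. Cells were plated onto pre-dispensed DMSO dilution series of the PRMT5 inhibitors and kept at 37 °C in 5% CO2.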

Row | SMILES | CC50 [nM]
1 | Nc1nc2cc(F)c(C(=O)N(Cc3ccc(C(F)(F)F)cc3F)c3cnn(C4CC4)c3)cc2n2cncc12 [Ff-276, 4-amino-N-(1-cyclopropyl-1H-pyrazol-4-yl)-7-fluoro-N-(2-fluoro-4-(trifluoromethyl)benzyl)imidazo[1,5-a]quinoxaline-8-carboxamide] | < 100
2 | Nc1nc2cc(F)c(C(=O)N(Cc3ccc(C(F)(F)F)cn3)c3ccccc3)cc2n2cncc12 [Ff-277, 4-amino-7-fluoro-N-phenyl-N-((5-(trifluoromethyl)pyridin-2-yl)methyl)imidazo[1,5-a]quinoxaline-8-carboxamide] | < 100
3 | CN(C(=O)c1cc2c(cc1F)nc(N)c1cncn12)[C@@H]1COCc2nc(C(F)(F)F)ccc21 [Ff-281, (S)-4-amino-7-fluoro-N-methyl-N-(2-(trifluoromethyl)-5,8-dihydro-6H-pyrano[3,4-b]pyridin-5-yl)imidazo[1,5-a]quinoxaline-8-carboxamide] | < 100
4 | CN(C(=O)c1cc2c(cc1F)nc(N)c1cncn12)[C@H]1COCc2nc(C(F)(F)F)ccc21 [Ff-282, (R)-4-amino-7-fluoro-N-methyl-N-(2-(trifluoromethyl)-5,8-dihydro-6H-pyrano[3,4-b]pyridin-5-yl)imidazo[1,5-a]quinoxaline-8-carboxamide] | 100 to 1000
5 | Nc1nc2cc(F)c(C(=O)N(Cc3ccc(C(F)(F)F)cc3F)c3cnn4c3CCC4)cc2n2cncc12 [Ff-285, 4-amino-N-(5,6-dihydro-4H-pyrrolo[1,2-b]pyrazol-3-yl)-7-fluoro-N-(2-fluoro-4-(trifluoromethyl)benzyl)imidazo[1,5-a]quinoxaline-8-carboxamide] | < 100
6 | Cn1ccc(N(Cc2ccc(C(F)(F)F)cc2F)C(=O)c2cc3c(cc2F)nc(N)c2cncn23)n1 [Ff-286, 4-amino-7-fluoro-N-(2-fluoro-4-(trifluoromethyl)benzyl)-N-(1-methyl-1H-pyrazol-3-yl)imidazo[1,5-a]quinoxaline-8-carboxamide] | < 100
7 | Cn1cc(N(Cc2ncc(C(F)(F)F)cc2F)C(=O)c2cc3c(cc2F)nc(N)c2cncn23)cn1 [Ff-290, 4-amino-7-fluoro-N-((3-fluoro-5-(trifluoromethyl)pyridin-2-yl)methyl)-N-(1-methyl-1H-pyrazol-4-yl)imidazo[1,5-a]quinoxaline-8-carboxamide] | < 100
8 | Nc1nc2cc(F)c(C(=O)N(Cc3ccc(C(F)(F)F)cc3F)c3cnn(C(F)F)c3)cc2n2cncc12 [Ff-291, 4-amino-N-(1-(difluoromethyl)-1H-pyrazol-4-yl)-7-fluoro-N-(2-fluoro-4-(trifluoromethyl)benzyl)imidazo[1,5-a]quinoxaline-8-carboxamide] | < 100
9 | CN(C(=O)c1cc2c(cc1F)nc(N)c1cncn12)[C@@H]1COCc2cc(-c3cnn(C(F)F)c3)ccc21 [Ff-292, (S)-4-amino-7-fluoro-N-methyl-N-(7-(1-(difluoromethyl)-1H-pyrazol-4-yl)isochroman-4-yl)imidazo[1,5-a]quinoxaline-8-carboxamide] | < 100
10 | CN(C(=O)c1ccc2nc(N)c3cncn3c2c1)[C@@H]1COCc2nc(C(F)(F)F)ccc21 [Ff-302, (S)-4-amino-N-methyl-N-(2-(trifluoromethyl)-5,8-dihydro-6H-pyrano[3,4-b]pyridin-5-yl)imidazo[1,5-a]quinoxaline-8-carboxamide] | < 100
11 | Cc1ncn2c1c(N)nc1cc(F)c(C(=O)N(C)[C@@H]3COCc4nc(C(F)(F)F)ccc43)cc12 [Ff-303, (S)-4-amino-7-fluoro-N,3-dimethyl-N-(2-(trifluoromethyl)-5,8-dihydro-6H-pyrano[3,4-b]pyridin-5-yl)imidazo[1,5-a]quinoxaline-8-carboxamide] | < 100
12 | Cc1ncn2c1c(N)nc1cc(F)c(C(=O)N(C)[C@@H]3COc4cc(C(F)(F)F)ccc43)cc12 [Ff-305, (S)-4-amino-7-fluoro-N,3-dimethyl-N-(6-(trifluoromethyl)-2,3-dihydrobenzofuran-3-yl)imidazo[1,5-a]quinoxaline-8-carboxamide] | < 100
13 | Cn1ccc(N(Cc2ccc(C(F)(F)F)cn2)C(=O)c2cc3c(cc2F)nc(N)c2cncn23)n1 [Ff-306, 4-amino-7-fluoro-N-(1-methyl-1H-pyrazol-3-yl)-N-((5-(trifluoromethyl)pyridin-2-yl)methyl)imidazo[1,5-a]quinoxaline-8-carboxamide] | < 100
14 | Cn1ccc(N(Cc2ncc(C(F)(F)F)cc2F)C(=O)c2cc3c(cc2F)nc(N)c2cncn23)n1 [Ff-307, 4-amino-7-fluoro-N-((3-fluoro-5-(trifluoromethyl)pyridin-2-yl)methyl)-N-(1-methyl-1H-pyrazol-3-yl)imidazo[1,5-a]quinoxaline-8-carboxamide] | < 100
15 | CN(C(=O)c1cc2c(cc1Cl)nc(N)c1cncn12)[C@@H]1COCc2nc(C(F)(F)F)ccc21 [Ff-308, (S)-4-amino-7-chloro-N-methyl-N-(2-(trifluoromethyl)-5,8-dihydro-6H-pyrano[3,4-b]pyridin-5-yl)imidazo[1,5-a]quinoxaline-8-carboxamide] | < 100
16 | CN(C(=O)c1cc2c(cc1F)nc(N)c1cncn12)C1CCc2cc(C(F)(F)F)ccc21 (centres unmarked) [Ff-309, 4-amino-7-fluoro-N-methyl-N-(5-(trifluoromethyl)-2,3-dihydro-1H-inden-1-yl)imidazo[1,5-a]quinoxaline-8-carboxamide] | < 100
17 | Nc1nc2cc(F)c(C(=O)N(Cc3ccc(C(F)(F)F)cn3)c3cnn(C(F)F)c3)cc2n2cncc12 [Ff-311, 4-amino-N-(1-(difluoromethyl)-1H-pyrazol-4-yl)-7-fluoro-N-((5-(trifluoromethyl)pyridin-2-yl)methyl)imidazo[1,5-a]quinoxaline-8-carboxamide] | < 100
18 | CN(C(=O)c1cc2c(cc1F)nc(N)c1cncn12)[C@@H]1c2ccc(Br)cc2[C@@H]2C[C@H]12 [Ff-312, 4-amino-N-((1aR,6S,6aS)-3-bromo-1,1a,6,6a-tetrahydrocyclopropa[a]inden-6-yl)-7-fluoro-N-methylimidazo[1,5-a]quinoxaline-8-carboxamide] | 100 to 1000
19 | CN(C(=O)c1cc2c(cc1F)nc(N)c1cncn12)[C@H]1c2ccc(Br)cc2[C@H]2C[C@H]21 [Ff-313, 4-amino-N-((1aS,6R,6aR)-3-bromo-1,1a,6,6a-tetrahydrocyclopropa[a]inden-6-yl)-7-fluoro-N-methylimidazo[1,5-a]quinoxaline-8-carboxamide] | 100 to 1000
20 | Nc1nc2cc(F)c(C(=O)N(Cc3ccc(C(F)(F)F)cn3)c3cnn(-c4ccccc4)c3)cc2n2cncc12 [Ff-315, 4-amino-7-fluoro-N-(1-phenyl-1H-pyrazol-4-yl)-N-((5-(trifluoromethyl)pyridin-2-yl)methyl)imidazo[1,5-a]quinoxaline-8-carboxamide] | < 100
21 | Cc1ncn2c1c(N)nc1cc(F)c(C(=O)N(C)[C@@H]3CCc4nc(C(F)(F)F)ccc43)cc12 [Ff-316, (R)-4-amino-7-fluoro-N,3-dimethyl-N-(2-(trifluoromethyl)-6,7-dihydro-5H-cyclopenta[b]pyridin-5-yl)imidazo[1,5-a]quinoxaline-8-carboxamide] | < 100
22 | Cc1ncc2c(N)nc3cc(F)c(C(=O)N(C)[C@@H]4CCc5nc(C(F)(F)F)ccc54)cc3n12 [Ff-317, (R)-4-amino-7-fluoro-N,1-dimethyl-N-(2-(trifluoromethyl)-6,7-dihydro-5H-cyclopenta[b]pyridin-5-yl)imidazo[1,5-a]quinoxaline-8-carboxamide] | 100 to 1000
23 | CN(C(=O)c1cc2c(cc1F)nc(N)c1cncn12)[C@@H]1CCc2nc(C(F)(F)F)ccc21 [Ff-318, (R)-4-amino-7-fluoro-N-methyl-N-(2-(trifluoromethyl)-6,7-dihydro-5H-cyclopenta[b]pyridin-5-yl)imidazo[1,5-a]quinoxaline-8-carboxamide] | < 100
24 | Nc1nc2cc(F)c(C(=O)N3CCO[C@@H]4Cc5cc(C(F)(F)F)c(F)cc5[C@@H]43)cc2n2cncc12 [Ff-326, (4-amino-7-fluoroimidazo[1,5-a]quinoxalin-8-yl)((4aS,9aR)-6-fluoro-7-(trifluoromethyl)-2,3,9,9a-tetrahydroindeno[2,1-b][1,4]oxazin-4(4aH)-yl)methanone] | < 100
25 | CC1CN(C(=O)c2cc3c(cc2F)nc(N)c2cncn23)[C@H]2c3cc(F)ccc3C[C@H]2O1 (stereo partly drawn) [Ff-327, (4-amino-7-fluoroimidazo[1,5-a]quinoxalin-8-yl)((4aS,9aR)-6-fluoro-2-methyl-2,3,9,9a-tetrahydroindeno[2,1-b][1,4]oxazin-4(4aH)-yl)methanone] | < 100
26 | CN(C(=O)c1cc2c(cc1F)nc(N)c1cncn12)[C@H]1c2ccc(Br)cc2[C@@H]2C[C@@H]21 [Ff-330, 4-amino-N-((1aR,6R,6aS)-3-bromo-1,1a,6,6a-tetrahydrocyclopropa[a]inden-6-yl)-7-fluoro-N-methylimidazo[1,5-a]quinoxaline-8-carboxamide] | 100 to 1000
27 | Nc1nc2cnc(C(=O)N3CCC[C@@H]4Oc5c(ccc(OC(F)(F)F)c5F)[C@@H]43)cc2n2cncc12 [Ff-336, (4-aminoimidazo[1,5-a]pyrido[3,4-e]pyrazin-8-yl)((4aS,9bS)-6-fluoro-7-(trifluoromethoxy)-3,4,4a,9b-tetrahydrobenzofuro[3,2-b]pyridin-1(2H)-yl)methanone] | < 100
28 | CN(C(=O)c1cc2c(cc1F)nc(N)c1cncn12)[C@@H]1COc2cc(C(C)(F)F)ccc21 [Ff-337, (S)-4-amino-N-(6-(1,1-difluoroethyl)-2,3-dihydrobenzofuran-3-yl)-7-fluoro-N-methylimidazo[1,5-a]quinoxaline-8-carboxamide] | < 100
29 | CN(C(=O)c1cc2c(cn1)nc(N)c1cncn12)[C@@H]1COc2cc(C(F)(F)F)ccc21 [Ff-342, (S)-4-amino-N-methyl-N-(6-(trifluoromethyl)-2,3-dihydrobenzofuran-3-yl)imidazo[1,5-a]pyrido[3,4-e]pyrazine-8-carboxamide] | < 100
